Measurements as given in patent US20240174629A1 (OTCPHARM JSC, priority 2021, published 2024).

Tested on: MDCK cells

## CSc1nc2nnc([N+](=O)[O-])c(=O)n2[nH]1 [Triazavirin, Methylthionitrooxodihydro-triazolotriazinide sodium]
  CC50 (MDCK): 298 ± 22 µg/mL
